# Experimental data: publication PMC11130653, “Development of a rapid HPLC-fluorescence method for monitoring warfarin metabolites formation: In vitro studies for evaluating the effect of piperine on warfarin metabolism and plasma coagulation” (Heliyon, 2024)
# Molecular target: T1, CYP2C9 (Homo sapiens, UniProt P11712)
# T1 construct: human liver microsomes
# Test: inhibition of S-warfarin 7-hydroxylation (CYP2C9 marker) in human liver microsomes, HPLC-FLD
# Assay type: biochemical
# T1 sequence (P11712 whole entry): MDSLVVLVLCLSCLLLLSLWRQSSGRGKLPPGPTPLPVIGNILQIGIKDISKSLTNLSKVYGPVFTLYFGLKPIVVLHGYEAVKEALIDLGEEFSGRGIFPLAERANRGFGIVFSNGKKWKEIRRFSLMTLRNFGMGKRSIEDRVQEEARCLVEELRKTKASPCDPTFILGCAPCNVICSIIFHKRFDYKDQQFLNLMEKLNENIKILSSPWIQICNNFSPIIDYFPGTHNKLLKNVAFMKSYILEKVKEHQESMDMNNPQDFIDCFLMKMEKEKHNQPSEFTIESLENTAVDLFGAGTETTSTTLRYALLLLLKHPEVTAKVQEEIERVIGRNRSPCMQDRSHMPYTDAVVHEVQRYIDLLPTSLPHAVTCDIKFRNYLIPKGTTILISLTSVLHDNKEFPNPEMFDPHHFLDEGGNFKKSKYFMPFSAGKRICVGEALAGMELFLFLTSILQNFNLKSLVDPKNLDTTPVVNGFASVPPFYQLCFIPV
smiles,measurement,value
O=C(/C=C/C=C/c1ccc2c(c1)OCO2)N1CCCCC1 [piperine],IC50,14.2 ± 1.1 µM
